Assay results: EP1313763B1, “METHOD FOR THE EXTRACTION AND THE USE OF ANTI[…] PEPTIDES FOR TREATING INFECTIOUS DISEASES” (IPF Pharmaceuticals GmbH, priority 2000, dated 2001)

Legend:
[1] = test system: Saccharomyces cerevisiae ATCC 9763; assay: Minimal inhibitory concentration (MIC) determination; details: incubation 18 ± 2 h, chemically synthesized peptides
Description: (§2) Die antimikrobielle Aktivität der erfindungsgemäßen Peptide wurde unter Anwendung der Bestimmung der minimalen Hemmstoffkonzentration (MIC) gegen verschiedene Keime, wie Gram-positive und Gram-negative Bakterien und Hefen, untersucht. Die minimale Hemmstoffkonzentration bezeichnet die Peptidkonzentration, die minimal erforderlich ist, um das Wachstum von Mikroorganismen nach einer Inkubationszeit von 18 ± 2 h vollständig zu hemmen.

[2] = test system: Bacillus subtilis ATCC 6051; assay: as above; details: incubation 18 ± 2 h, chemically synthesized peptides
Description: as §2

[3] = test system: Escherichia coli BL21 (DE3); assay: as above; details: incubation 18 ± 2 h, chemically synthesized peptides
Description: as §2

[4] = test system: Micrococcus luteus ATCC 9341; assay: as above; details: incubation 18 ± 2 h, chemically synthesized peptides
Description: as §2

E. coli = assay: Radial diffusion inhibition test of HPLC fractions; assay type: cell-based, Escherichia coli; details: pure peptide in purified HPLC fraction from tissue extract; E. coli in agarose, 37 °C, 16 h
Text: (§1) Für die Reinigung von antimikrobiellen Peptiden aus Plazentaextrakt können verschiedene HPLC Trennverfahren kombiniert werden, um eine möglichst reine Darstellung über eine optimale Trennung zu erzielen und inaktive, unerwünschte Bestandteile abzutrennen. Die jeweiligen Proben, die nach jedem Trennungsschritt entstehen, werden auf ihre antimikrobielle Aktivität gegen Escherichla coli mit Hilfe des Radial-DifFusions-Hemmtests untersucht (siehe Beispiel 3). Notwendig für die Reinigung ist die Kombination von mindestens zwei Reverse Phase Chromatographieschritten und der Einsatz einer Kationenaustausch-HPLC-Trennung. In dem Biotest sollte die jeweilige Probe salzarm eingesetzt werden, um ein möglichst optimales Screeningergebnis zu erhalten.
as §1, with “Thymusextrakt” for “Plazentaextrakt”, “Escherichia” for “Escherichla”, “Radial-Diffusions-Hemmtests” for “Radial-DifFusions-Hemmtests”, “2). Empfehlenswert” for “3). Notwendig”, “In dem Biotest sollte die jeweilige Probe salzarm eingesetzt werden, um ein möglichst optimales Screeningergebnis zu erhalten.” left out

[5] = test system: Staphylococcus carnosus TM 300; assay: Minimal inhibitory concentration (MIC) determination; details: incubation 18 ± 2 h, chemically synthesized peptides
Description: as §2

[6] = test system: Pseudomonas aeruginosa clinical isolate; assay: as above; details: incubation 18 ± 2 h, chemically synthesized peptides
Description: as §2

[7] = test system: Staphylococcus aureus ATTC 25923; assay: as above; details: incubation 18 ± 2 h, chemically synthesized peptides
Text: (§3) Dabei werden als Testmikroorganismen entweder Staphylococcus aureus oder Escherichia coli verwendet, je nachdem, bei welchem Mikroorganismus das Peptid bessere Wirksamkeit hat. Die Bakterien sind wie folgt charakterisiert: • Staphylococcous aureus: Gram-positive Kokken, ATCC 25923 • Escherichia coll: Gram-negative Stäbchen, ATCC 25922
(§4) Die antimikrobielle Aktivität der erfindungsgemäßen Peptide wurde unter Anwendung der Bestimmung der minimalen Hemmstoffkonzentration (MIC) gegen verschiedene Keime, wie Gram-positive und Gram-negative Bakterien und Hefen, untersucht. Die minimale Hemmstoffkonzentration bezeichnet die Peptidkonzentration, die minimal erforderlich ist, um das Wachstum von Mikroorganismen nach einer Inkubationszeit von 18 ± 2 h vollständig zu hemmen. Diese Quantifizierung der antimikrobiellen Aktivität ist mit chemisch synthetisierten Peptiden (Peptidsequenzen 1-5) gegen nicht pathogene sowie human pathogene Erreger durchgeführt worden.

[8] = test system: Escherichia coli ATTC 25922; assay: as above; details: incubation 18 ± 2 h, chemically synthesized peptides
Text: as §3, §4

[9] = test system: Klebsiella pneumoniae ATCC 10031; assay: as above; details: incubation 18 ± 2 h, chemically synthesized peptides
Description: as §2

Substance	minimale Hemmkonzentration (MIC) [1] [µg/mL]	minimale Hemmkonzentration (MIC) [2] [µg/mL]	minimale Hemmkonzentration (MIC) [3] [µg/mL]	minimale Hemmkonzentration (MIC) [4] [µg/mL]	antimikrobielle Aktivität (E. coli)	minimale Hemmkonzentration (MIC) [5] [µg/mL]	minimale Hemmkonzentration (MIC) [6] [µg/mL]	minimale Hemmkonzentration (MIC) [7] [µg/mL]	minimale Hemmkonzentration (MIC) [8] [µg/mL]	minimale Hemmkonzentration (MIC) [9] [µg/mL]
hGAPDH-1-31 [Peptide 2]	100	7.8	7.8	31.25	antimikrobiell wirksame	12.5	31.25			
hHEM-g-130-146 [Peptide 1]	100	100	100	200	antimikrobiell wirksame	100	> 200	200	200	300
